# Experiments:
# [1] = test system: B. subtilis 168 pNK-DinC; experiment: Lux-biosensor, SOS response (PdinC); format: cell-based, Bacillus subtilis; conditions: compounds 1 μM to 1 mM; Standard = Mitomycin C 30 μM
# Description: (§1) The study was carried out with use of the following whole-cell bacterial biosensors: Escherichia coli MG1655 pOxyR-lux, E. coli MG1655 pDps, E. coli MG1655 pSoxS-lux, E. coli MG1655 pColD-lux, E. coli MG1655 pAlkA-lux, E. coli MG1655 pXen7, Bacillus subtilis 168 pNK-AlkA, B. subtilis 168 pNK-MrgA and B. subtilis 168 pNK-DinC. These biosensors by the quantitation of bacterial stress promoters’ activity, make it possible to determine oxidative stress caused by hydrogen peroxide and the superoxide anion radical, SOS response, DNA alkylation, or general toxicity in Gram-positive and Gram-negative B. subtilis and E. coli cells. We used concentrations from 1 μM to 1 mM of the studied compounds added to the suspension of biosensor cells. […]
# (§2) The bioluminescence of cells was measured using a Synergy HT luminometer (Biotek, Winooski, VT, USA) at room temperature. Lux biosensors based on E. coli were grown to an early logarithmic phase (OD ≈ 0.1) to achieve a background luminescence approximately 100–1000 RLU at the beginning of the measurements. Lux biosensors based on B. subtilis were grown to a logarithmic phase with an optical density OD ≈ 0.6 (and background luminescence of about 10–500 RLU). […] The kinetics of change in luminescence was measured at room temperature. […]
# [2] = test system: LPS-stimulated C57bl/6j peritoneal macrophages; experiment: Suppression of NO synthesis in LPS-stimulated peritoneal macrophages (Griess); format: cell-based, mice
# From the text: For screening designed compounds according to their probable ability to limit inflammation, we used a test on the inhibition of LPS-induced activation of primary murine macrophages. The most prominent anti-inflammatory activity, defined as the suppression of nitric oxide synthesis by LPS-stimulated macrophages, was evident for compounds 4a and 5b. At the same time, for 4a, the cytotoxic concentration was 4.7–18.4 times higher than the effective anti-inflammatory concentration. […] According to the data obtained, there is no direct correlation between the efficiency of the inhibition of sEH and NO synthesis, which requires further studies of the anti-inflammatory activity of the investigated compounds.
# Peritoneal macrophages (PM) were isolated from the peritoneal exudate of 30 male C57bl/6j mice. To accumulate PM, 1 mL of 3% peptone solution was injected intraperitoneally. After 3 days, the mice were euthanized by cervical dislocation. Cells of peritoneal exudate were obtained by aseptic washing of the abdominal cavity with 5 mL of sterile Hanks’s solution (+4–6 °C) without calcium and magnesium ions. The total number and viability of cells were assessed in a Goryaev counting chamber (Russia) with a 0.4% trypan blue staining (Sigma-Aldrich, St. Louis, MO, USA). The cell concentration was adjusted to 1.0 × 10^6 cells/mL in DMEM (Gibco) supplemented with 2 mM L-glutamine (Gibco), 10% heat-inactivated fetal bovine serum (BioClot, Passau, Germany), 100 U/mL penicillin and […] streptomycin (Gibco) and plated 200 μL/well in 96-well transparent plates (SPL Life Sciences Co., Ltd., Pochon, Korea). After 2 h at 37 °C in a humidified atmosphere with 5% CO2, wells were washed to remove nonadherent cells. After 24 h of incubation, 20 μL of the supernatants were substituted with 20 μL of solutions of the test compounds, followed with E. coli O127:B8 LPS (100 ng/mL final concentration) after 30 min. Experiments were run in 3 independent replicates.
# The accumulation of nitrite anion (a stable decomposition product of NO produced by iNOS) in the supernatants was determined using a standard Griess reagent. Briefly, 50 μL of supernatants collected 22 h after incubation of PM with the test and control compounds were mixed with 50 μL of 1% sulfonamide in 2.5% H3PO4 and 50 μL of 0.1% N-(1-naphthyl) ethylenediamine in 2.5% H3PO4. After incubation at 23 °C for 10 min. in an orbital shaker, the optical density was determined at a wavelength of 550 nm with a microplate reader Infinite M200 PRO (Tecan, Austria).
# [3] = test system: B. subtilis 168 pNK-AlkA; experiment: Lux-biosensor, DNA alkylation (PalkA); format: cell-based, Bacillus subtilis; conditions: compounds 1 μM to 1 mM; Standard = methyl methanesulfonate 1 mM
# Description: as §1, §2
Structure (SMILES),"max(Kind), B. subtilis 168 pNK-DinC [1]","cytotoxic concentration versus effective anti-inflammatory concentration ([2]; CC50 (MTT, LDH) over NO synthesis IC50, peritoneal macrophages)","IC50 ([2]; Mus musculus, Peritoneal macrophage, 22 h, read-out: NO Synthesis, IC50 ± SE)","max(Kind), B. subtilis 168 pNK-AlkA [3]",NO synthesis inhibition (in words) ([2]; LPS-stimulated macrophages)
"[Se]=C(Nc1ccccc1)NC12CC3CC(CC(C3)C1)C2 [4a, 1-(Adamantan-1-yl)-3-phenylselenourea]",1.1 ± 0.4,4.7–18.4 times,1600 ± 200 nM,0.8 ± 0.4,
"[Se]=C(Nc1ccccc1)NC1C2CC3CC(C2)CC1C3 (stereo not shown) [4g, 1-(Adamantan-2-yl)-3-phenylselenourea]",1.1 ± 0.3,,,0.7 ± 0.4,able to inhibit sEH but not NO synthesis

# From paper PMC9501280, “Anti-Inflammatory Activity of Soluble Epoxide Hydrolase Inhibitors Based on Selenoureas Bearing an Adamantane Moiety” (International Journal of Molecular Sciences, 2022)
